Laboratory results reported in BindingDB's records for doi:10.1016/s0960-894x(99)00089-x (Kyoto Pharmaceutical University, 1999).
pEC50: −log10 of the molar value.

Test: Inhibitory activity against HIV-1 IIIB in CEM-SS infected cells (Experiment 1)

For Cc1cn([C@H]2C[C@H](N=[N+]=[N-])[C@@H](CO)O2)c(=O)[nH]c1=O [1-((2R,4S,5S)-4-Azido-5-hydroxymethyl-tetrahydro-furan-2-yl)-5-methyl-1H-pyrimidine-2,4-dione], the pEC50 was 6.90.
